Experimental data taken from patent US12258336B2, “Preparation of seimicarbazide-sensitive amine oxidase inhibitor and use thereof” (SHANGHAI ENNOVABIO PHARMACEUTICALS CO., LTD., priority 2018, dated 2025).

Tests used:
Assay type in all cases: biochemical
Recombinant human MAO-A = target: T1, Recombinant human MAO-A (Homo sapiens, UniProt P21397); assay: Inhibitory activity on MAO-A
T1 construct: purchased Sigma M7316
T1 sequence (P21397 1-527): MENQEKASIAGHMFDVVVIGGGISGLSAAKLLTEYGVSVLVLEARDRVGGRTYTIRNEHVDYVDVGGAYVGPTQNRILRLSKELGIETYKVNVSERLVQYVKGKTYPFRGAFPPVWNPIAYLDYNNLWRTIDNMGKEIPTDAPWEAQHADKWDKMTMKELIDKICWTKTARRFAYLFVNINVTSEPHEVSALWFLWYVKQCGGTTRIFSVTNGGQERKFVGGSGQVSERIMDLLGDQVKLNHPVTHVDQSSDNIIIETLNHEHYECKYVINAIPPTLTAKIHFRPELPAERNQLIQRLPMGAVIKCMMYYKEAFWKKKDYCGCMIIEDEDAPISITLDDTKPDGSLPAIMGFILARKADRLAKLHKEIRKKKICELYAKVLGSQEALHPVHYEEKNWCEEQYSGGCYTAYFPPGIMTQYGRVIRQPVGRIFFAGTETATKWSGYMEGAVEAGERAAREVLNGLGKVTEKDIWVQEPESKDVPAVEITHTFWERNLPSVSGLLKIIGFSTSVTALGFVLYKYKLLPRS
Procedure: (§1) Recombinant human MAO-A and MAO-B protein was purchased from Sigma (M7316, M7441). Other reagents are the same as Biological Test Example 1. The final concentration of test compound in 10 μL reaction system was 100 μM to 5 nM when MAO-A and MAO-B were detected. The final concentrations of MAO-A and MAO-B protein in 10 μL reaction system were 70 nM and 300 nM, respectively, while other reaction conditions were the same as those in Biological Test Example 1. Data analysis and IC50 calculation method were the same as those in Biological Test Example 1.

Recombinant human MAO-B = target: T2, Recombinant human MAO-B (Homo sapiens, UniProt P27338); assay: Inhibitory activity on MAO-B
T2 construct: purchased Sigma M7441
T2 sequence (P27338 1-520): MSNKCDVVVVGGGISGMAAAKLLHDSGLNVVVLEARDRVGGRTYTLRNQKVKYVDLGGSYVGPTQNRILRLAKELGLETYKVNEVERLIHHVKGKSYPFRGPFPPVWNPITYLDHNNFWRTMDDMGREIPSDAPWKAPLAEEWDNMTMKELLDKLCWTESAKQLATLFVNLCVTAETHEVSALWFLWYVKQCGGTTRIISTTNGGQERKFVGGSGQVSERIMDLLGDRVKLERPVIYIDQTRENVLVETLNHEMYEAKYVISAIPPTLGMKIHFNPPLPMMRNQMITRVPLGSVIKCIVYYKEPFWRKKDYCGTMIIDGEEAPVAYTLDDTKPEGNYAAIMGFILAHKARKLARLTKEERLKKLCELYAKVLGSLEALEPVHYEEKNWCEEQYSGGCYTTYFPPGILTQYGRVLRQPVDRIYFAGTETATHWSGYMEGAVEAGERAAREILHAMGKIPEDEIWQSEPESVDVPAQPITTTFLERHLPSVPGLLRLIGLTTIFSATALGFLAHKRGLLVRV
Procedure: as §1

[1] = target: T3, Recombinant human SSAO protein (Homo sapiens, UniProt Q16853); assay: In vitro inhibitory activity on SSAO/VAP-1 (MAO-Glo assay), human
T3 construct: Eli Lilly (provided, not a catalogue product)
T3 sequence (Q16853 1-763): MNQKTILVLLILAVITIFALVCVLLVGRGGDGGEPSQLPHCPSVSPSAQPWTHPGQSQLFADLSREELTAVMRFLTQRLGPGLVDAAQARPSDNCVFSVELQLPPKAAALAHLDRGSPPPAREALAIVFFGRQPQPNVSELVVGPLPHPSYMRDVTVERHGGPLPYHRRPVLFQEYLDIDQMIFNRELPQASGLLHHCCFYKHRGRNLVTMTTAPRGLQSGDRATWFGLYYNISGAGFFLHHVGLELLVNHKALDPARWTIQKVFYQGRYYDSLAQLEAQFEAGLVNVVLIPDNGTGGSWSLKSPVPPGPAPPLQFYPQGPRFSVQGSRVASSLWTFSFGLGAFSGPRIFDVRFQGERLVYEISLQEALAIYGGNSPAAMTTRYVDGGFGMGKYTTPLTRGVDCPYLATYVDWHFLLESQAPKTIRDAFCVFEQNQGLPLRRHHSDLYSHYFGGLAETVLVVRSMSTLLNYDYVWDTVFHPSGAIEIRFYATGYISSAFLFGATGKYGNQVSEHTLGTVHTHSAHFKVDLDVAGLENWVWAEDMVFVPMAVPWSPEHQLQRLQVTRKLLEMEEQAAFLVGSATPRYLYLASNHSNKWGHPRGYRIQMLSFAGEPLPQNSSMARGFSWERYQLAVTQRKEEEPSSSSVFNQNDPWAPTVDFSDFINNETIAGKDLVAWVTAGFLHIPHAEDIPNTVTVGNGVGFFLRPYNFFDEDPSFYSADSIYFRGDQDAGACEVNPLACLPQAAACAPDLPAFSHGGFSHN
Procedure: This assay was used to evaluate the in vitro inhibitory activity of the compounds on SSAO/VAP-1 of different species. Recombinant human SSAO protein, mouse SSAO protein or rat SSAO protein (provided by Eli Lilly) were used. The enzyme activity detection kit, MAO-Glo Assay kit (V1402) was purchased from Promega. Enzyme reaction buffer (50 mM HEPES, 120 mM NaCl, 5 mM KCl, 2 mM CaCl2, 1.4 mM MgCl2, 0.001% Tween-20, pH7.4) was prepared. The test compound was dissolved in DMSO and diluted by 3-fold concentration in gradient. The final concentration of test compound in a 10 μL reaction system was 1 μM to 0.05 nM when SSAO was detected. The content of DMSO in the detection reaction was 1%. After the solution of test compound in DMSO was diluted in the enzyme reaction buffer at a volume ratio of 1:25, 2.5 μL of which was added to each well of detection plate, two replicates for each concentration. 5 μL of SSAO protein diluted in the enzyme reaction buffer was added to each well, the final concentration of which was 10 nM to 80 nM in 10 μL reaction system. The mixture was incubated at room temperature for 10 minutes. 2.5 μL of the reaction substrate diluted in the enzyme reaction buffer was added to each well, the final concentration of which was 10 μM in 10 μL reaction system. After the mixture was reacted at room temperature for 120 minutes, 10 μL of detection reagent was added to each well. The reaction solution was incubated for 20 minutes at room temperature, and the plate was read with Synergy Neo 2 for detection. The value was converted into inhibition rate by the following formula: Inhibition rate=(Signalpositive−Signaltest)/(Signalpositive−Signalnegative)×100%
Signalpositive was positive control without test compound. Signalnegative was negative control without test compound and SSAO enzyme, and Signaltest was detection value of each compound at different concentrations. IC50 value was calculated by using 4 parameter curve fitting.

IC50 (Recombinant human MAO-A): 2 to 100 µM
IC50 (Recombinant human MAO-B): > 20 µM
IC50 [1]: > 0.05 µM
SMILES: NC/C(=C\F)COc1cnc(N2CC3(COC3)C2)nc1 [Example 11]
